Reference: patent US4199568A, “Tetrapeptide amides” (Reckitt & Colman Products Limited, priority 1977, dated 1980)

Key:
[1] = test system: phenylquinone induced writhing; assay: mouse phenylquinone induced writhing test (Hendershot and Forsaith); assay type: in vivo; settings: administered i.v.
Method: The compounds were also evaluated in the mouse phenylquinone induced writhing test of Hendershot L. C. and Forsaith J., J. Pharm. Exp. Therap.

opiate receptor sites = assay: transmurally stimulated guinea pig ileum preparation (Kosterlitz and Watt), agonist activity compared with Met-enkephaline; assay type: cell-based; settings: isolated guinea pig ileum twitch response, 0.1 Hz stimulation; dose response curve compared with Met-enkephaline
Text: Thus for example they have affinity for opiate receptor sites and as such may be useful as anagesics, narcotic antagonists or anti-diarrhoeal agents. The test used for the detection of their agonist activity at opiate receptor sites is that of employing the transmurally stimulated guinea pig ileum preparation described in Kosterlitz H. W., and Watt A. J., Brit. J. Pharmacol, and Chemotherapy 33, […] (1968).
In the above mentioned test method of Kosterlitz and Watt male or female guinea pigs (Duncan Hartley strain) are killed by a blow on the head and a portion of the ileum removed and set up in an isolated organ bath of 50 ml volume. A `twitch` response is produced by low frequency (0.1 Hz) stimulation with 0.5 msec rectilinear pulses. The response is depressed by a large number of different pharmacologically active agents (local anaesthetics, smooth muscle depressants, presynaptic α-receptor stimulants, and narcotic agonists).
A test compound is dissolved in distilled water to produce a stock solution of concentration 1 mg/ml. Serial dilutions are carried out using Krebs solution to product concentrations of 10 ug, 1 ug and 0.1 ug/ml. The compound is tested by adding between 0.1-0.3 ml of the solutions to the organ bath. A dose response curve is then drawn and compared with that for Met-enkephaline.

| SMILES | ED50 [1] [µg/kg] | activity relative to Met-enkephaline (opiate receptor sites) |
| --- | --- | --- |
| C[C@@H](NC(=O)[C@@H](N)Cc1ccc(O)cc1)C(=O)NCC(=O)N(C)[C@@H](Cc1ccccc1)C(=O)NCCC[S+](C)[O-].Cl (stereo partly drawn) [H-Tyr-D-Ala-Gly-MePhe-NH(CH2)3 SOMe, L-Tyrosyl-D-alanyl-glycyl-N-methyl-L-phenylalanine-3-methylsulphinylpropylamide hydrochloride] | 4.5 | approximately eleven |
| CN[C@@H](Cc1ccc(O)cc1)C(=O)N[C@H](C)C(=O)NCC(=O)N(C)[C@@H](Cc1ccccc1)C(=O)NCCC[S+](C)[O-].Cl (stereo partly drawn) [Me-Tyr-D-Ala-Gly-MePhe-NH(CH2)3 SOMe, N-Methyl-L-tyrosyl-D-alanyl-glycyl-N-methyl-L-phenylalanine-3-methylsulphinylpropylamide hydrochloride] | 4 | approximately fifteen |
